The source of these data is patent publication US10590129B2 (Incozen Therapeutics Pvt. Ltd., priority 2010, dated 2020).

Like-named read-outs stand apart in the source and are kept apart here.

In data set [1] the target is T1, c-Met (Homo sapiens, UniProt P08581). The note with it: cited from earlier work.
The next data set has as its target RON (Homo sapiens, UniProt Q04912). The settings on record: cited from earlier work.
The test system of data set [2] is MKN-45 cells. As to the kind of experiment: Inhibition of MKN-45 proliferation (MTT). In kind it is cell-based, human. The note with it: for GI50 / inhibition at 0.1 µM: Homo sapiens, MKN-45, MKN-45 proliferation; for Inhibition (% Inhibition of MKN-45 proliferation) / inhibition at 0.1 µM: 0.1 μM. An outline of the steps:
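Viability measured by MTT dye reduction on day 5 after compound addition on day 2 to MKN-45 gastric adenocarcinoma cells (high Met expression) seeded on day 1 in complete medium.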

Data set [3] has as its system Akt. As to the kind of experiment: Inhibition of Akt phosphorylation in MKN-45 cells (western blot, pAkt S473). In kind it is cell-based. The note with it: Homo sapiens. On the procedure:
(§1) Inhibition of Akt Phosphorylation in MKN-45 or NCI-11441 Cells:
(§2) Akt is a serine-threonine kinase and a downstream marker regulated by c-Met kinase via the PI3K pathway. Once phosphorylated, Akt regulates several end processes including cell survival and growth. Cells were treated with 0−1000 nM of test compounds, lysed, and the proteins separated on a 10% SDS-PAGE. Following separation, proteins were transferred onto a nitrocellulose membrane and detected by chemiluminescence after incubation with pAkt S473 mAb (primary) and rabbit anti-mouse Ab (secondary). Intensity of the bands was determined using ImageJ 1.42q (NIH, USA) and normalized to Actin (loading control).
(Immunoblotting shows a protein as a band on a membrane.)

The test system of data set [4] is Akt. As to the kind of experiment: Inhibition of Akt phosphorylation in NCI-H441 cells (western blot, pAkt S473). The class given is cell-based. The settings on record: Homo sapiens. The protocol: as §1, §2
The test system of data set [5] is MKN-45 cells. The data set is described as follows: Induction of apoptosis in MKN-45 cells (caspase-3 activity). In kind it is cell-based, human. The note with it: @ 3 μM, 24 h, caspase-3, percent of maximum response. The protocol:
6. Induction of Apoptosis in MKN-45 Cells:
Induction of Caspase 3 was measured fluorimetrically. Cells were incubated with desired concentrations of the compound for 24 h. After incubation, cells were harvested and counted. An equal number of viable cells per well (0.3×10^6 cells) were used for determination of caspase-3 activity. Increase in apoptosis manifested by an elevation in caspase-3 levels was determined using a Caspase-3 kit from Millipore. Data are expressed as a percent of the maximum response (100%).

Data set [6] addresses T1, c-Met. The data set is described as follows: Inhibition of c-Met kinase phosphorylation in MKN-45 cells (cell based ELISA). The arrangement: endogenous in cells; host or cells: MKN-45. The settings on record: 1 h. The protocol:
Inhibition of c-Met Kinase Phosphorylation in MKN-45 Cells:
MKN45 cells are a prototype of “c-Met addicted” cells having constitutively activated c-Met kinase similar to that observed in sub-sects of gastric or hepatocellular cancer patients with dysregulated c-Met kinase activity. Inhibition of Met phosphorylation was determined using a cell based ELISA assay according to the following schedule:
Day 1: MKN-45 cells were plated in 96-well plates in complete growth medium.
Day 2: Inhibitors at the desired concentration were added to the plates and incubated for 1 h and lysed subsequently.
Lysates were transferred to NUNC Maxisorp plates coated with anti-cMet receptor antibody. Phopho-tyrosine mAb and HRP-lined anti-mouse IgG were used as primary and secondary antibodies respectively. Optical density was measured on a microplate reader (BMG Labtech., Germany) at […]. Inhibition of c-Met phosphorylation in this cell line indicates a therapeutic potential for test compounds in patients diagnosed with cancers caused by aberrant c-Met kinase signalling.
On the technique in general: ELISA stands for enzyme-linked immunosorbent assay.

The target in data set [7] is T1, c-Met. The data set is described as follows: Inhibition of c-Met kinase phosphorylation in NCI-H441 cells (cell based ELISA). Also noted: endogenous in cells; host or cells: NCI-H441. The note with it: 1 h. On the procedure: Inhibition of c-Met Kinase Phosphorylation in NCI—H441 Cells:
Inhibition of Met phosphorylation was determined using a cell based ELISA assay according to the following schedule:
Day 1: NCI—H441 cells were plated in 96-well plates in complete growth medium.
Day 2: Inhibitors at the desired concentration were added to the plates, incubated for 1 h and lysed subsequently. Lysates were transferred to NUNC Maxisorp plates coated with anti-cMet receptor antibody. Phopho-tyrosine mAb and HRP-lined anti-mouse IgG were used as primary and secondary antibodies respectively. Optical density was measured on a microplate reader (BMG Labtech., Germany) at […].

The target of data set [8] is T2, Met kinase (Homo sapiens, UniProt P08581). The data set is described as follows: Inhibition of HGF-induced Met phosphorylation in MDA-MB-231 cells. In kind it is cell-based. The settings on record: HGF 50 ng/ml, read-out: HGF stimulated Met phosphorylation (IC50). Also noted: endogenous in cells; host or cells: MDA-MB-231.
T2 sequence (P08581 25-1390): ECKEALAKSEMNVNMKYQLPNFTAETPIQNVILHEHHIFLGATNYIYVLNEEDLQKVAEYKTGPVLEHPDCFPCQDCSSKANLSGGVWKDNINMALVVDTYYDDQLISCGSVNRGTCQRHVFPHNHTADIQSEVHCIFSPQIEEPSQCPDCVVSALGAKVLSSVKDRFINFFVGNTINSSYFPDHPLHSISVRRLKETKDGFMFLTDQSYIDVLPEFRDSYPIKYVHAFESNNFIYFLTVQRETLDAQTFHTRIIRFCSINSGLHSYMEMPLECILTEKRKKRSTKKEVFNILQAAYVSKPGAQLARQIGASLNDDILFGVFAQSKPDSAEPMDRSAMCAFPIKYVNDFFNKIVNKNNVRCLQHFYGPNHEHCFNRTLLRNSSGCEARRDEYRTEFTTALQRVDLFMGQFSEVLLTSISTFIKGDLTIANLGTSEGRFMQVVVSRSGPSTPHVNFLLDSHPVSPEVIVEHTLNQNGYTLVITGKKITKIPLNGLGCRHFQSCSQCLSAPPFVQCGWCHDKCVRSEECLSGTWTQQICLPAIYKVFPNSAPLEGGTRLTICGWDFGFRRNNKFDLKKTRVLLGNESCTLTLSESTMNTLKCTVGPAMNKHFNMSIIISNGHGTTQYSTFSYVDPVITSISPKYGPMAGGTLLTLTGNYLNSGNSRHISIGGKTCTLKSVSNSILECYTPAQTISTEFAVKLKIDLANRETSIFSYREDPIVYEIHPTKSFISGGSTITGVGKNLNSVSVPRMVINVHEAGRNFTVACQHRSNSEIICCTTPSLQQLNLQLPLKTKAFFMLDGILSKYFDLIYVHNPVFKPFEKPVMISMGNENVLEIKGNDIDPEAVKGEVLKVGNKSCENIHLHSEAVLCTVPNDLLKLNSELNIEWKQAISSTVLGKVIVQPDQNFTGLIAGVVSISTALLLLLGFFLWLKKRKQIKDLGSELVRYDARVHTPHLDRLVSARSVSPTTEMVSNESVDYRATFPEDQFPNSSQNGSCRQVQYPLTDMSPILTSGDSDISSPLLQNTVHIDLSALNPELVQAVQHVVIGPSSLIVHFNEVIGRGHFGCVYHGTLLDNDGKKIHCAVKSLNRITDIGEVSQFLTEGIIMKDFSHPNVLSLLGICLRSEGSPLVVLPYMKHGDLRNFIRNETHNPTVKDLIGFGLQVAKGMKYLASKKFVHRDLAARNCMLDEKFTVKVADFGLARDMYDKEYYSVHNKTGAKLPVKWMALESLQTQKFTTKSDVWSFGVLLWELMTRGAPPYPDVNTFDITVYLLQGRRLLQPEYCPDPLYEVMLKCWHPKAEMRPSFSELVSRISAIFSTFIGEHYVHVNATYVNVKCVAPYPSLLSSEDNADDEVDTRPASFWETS
The target in data set [9] is T2, Met kinase. The data set is described as follows: MET kinase assay (colorimetric determination of c-Met kinase activity, HTScan Met Kinase Assay Kit). The class given is biochemical. The settings on record: for IC50: c-Met kinase. The arrangement: purchased Cell Signalling Technology, Beverly, Mass. The source says: 1. MET Kinase Assay Protocol:
Colorimetric Determination of c-Met Kinase Activity
The receptor tyrosine kinase c-Met is a heterodimeric transmembrane glycoprotein involved in several cellular processes that aid in tumor progression. Phosphorylation of the tyrosine residues in the c-Met kinase domain is critical for its activity and the resulting down-stream effects. The colorimetric assay allows detection of the phosphorylated form of a biotinylated peptide upon activation of human recombinant Met kinase.
MET Kinase Assay Protocol:
c-Met Kinase activity shall be determined using an HTScan® Met Kinase Assay Kit (Cell Signalling Technology, Beverly, Mass.) with modifications. All incubations are carried out at room temperature. Briefly, 12.5 μl of a 4× reaction cocktail (DTT/Kinase buffer containing appropriate quantity of human Met kinase) is added to each well of a 96-well plate containing 12.5 μl pre-diluted compound of interest and incubated for 5 minutes. After the initial incubation, 25 μl/well of 2×ATP/biotinylated peptide is added and incubated for an additional 30 minutes. The reaction is terminated by the addition of 50 μl/well stop buffer (50 mM EDTA, pH 8.0). The reaction mixture (25 μl/well) is then transferred to a streptavidin coated plate (Perkin Elmer, Cat#4009-0010) containing 75 μl dH2O and incubated for 60 minutes. The plate is washed with 200 μl/well wash buffer (1×PBS, 0.05% Tween-20). After washing, 100 μl/well phospho-tyrosine mAb (1:1000 in wash buffer containing 1% BSA) is added and incubated for 60 minutes. After another round of washes, 100 μl/well europium labelled anti-mouse IgG (1:500 in wash buffer containing 1% BSA) is added and incubated for an additional 30 minutes. Following additional washes, 100 μl/well Delfia® enhancement solution (Perkin Elmer, Cat#1244-105) is added and incubated for 45 minutes. Florescence is measured on a microplate reader (BMG Labtech., Germany) at 340 nm (excitation) and 615 nm (emission) for calculating % inhibition. Data generated can be analyzed further using Graphpad Prism (Graphpad software, San Diego Calif.) for determination of IC50.

T1 sequence (P08581 25-1390): as above
Sequence of RON (Q04912 25-1400, species assumed): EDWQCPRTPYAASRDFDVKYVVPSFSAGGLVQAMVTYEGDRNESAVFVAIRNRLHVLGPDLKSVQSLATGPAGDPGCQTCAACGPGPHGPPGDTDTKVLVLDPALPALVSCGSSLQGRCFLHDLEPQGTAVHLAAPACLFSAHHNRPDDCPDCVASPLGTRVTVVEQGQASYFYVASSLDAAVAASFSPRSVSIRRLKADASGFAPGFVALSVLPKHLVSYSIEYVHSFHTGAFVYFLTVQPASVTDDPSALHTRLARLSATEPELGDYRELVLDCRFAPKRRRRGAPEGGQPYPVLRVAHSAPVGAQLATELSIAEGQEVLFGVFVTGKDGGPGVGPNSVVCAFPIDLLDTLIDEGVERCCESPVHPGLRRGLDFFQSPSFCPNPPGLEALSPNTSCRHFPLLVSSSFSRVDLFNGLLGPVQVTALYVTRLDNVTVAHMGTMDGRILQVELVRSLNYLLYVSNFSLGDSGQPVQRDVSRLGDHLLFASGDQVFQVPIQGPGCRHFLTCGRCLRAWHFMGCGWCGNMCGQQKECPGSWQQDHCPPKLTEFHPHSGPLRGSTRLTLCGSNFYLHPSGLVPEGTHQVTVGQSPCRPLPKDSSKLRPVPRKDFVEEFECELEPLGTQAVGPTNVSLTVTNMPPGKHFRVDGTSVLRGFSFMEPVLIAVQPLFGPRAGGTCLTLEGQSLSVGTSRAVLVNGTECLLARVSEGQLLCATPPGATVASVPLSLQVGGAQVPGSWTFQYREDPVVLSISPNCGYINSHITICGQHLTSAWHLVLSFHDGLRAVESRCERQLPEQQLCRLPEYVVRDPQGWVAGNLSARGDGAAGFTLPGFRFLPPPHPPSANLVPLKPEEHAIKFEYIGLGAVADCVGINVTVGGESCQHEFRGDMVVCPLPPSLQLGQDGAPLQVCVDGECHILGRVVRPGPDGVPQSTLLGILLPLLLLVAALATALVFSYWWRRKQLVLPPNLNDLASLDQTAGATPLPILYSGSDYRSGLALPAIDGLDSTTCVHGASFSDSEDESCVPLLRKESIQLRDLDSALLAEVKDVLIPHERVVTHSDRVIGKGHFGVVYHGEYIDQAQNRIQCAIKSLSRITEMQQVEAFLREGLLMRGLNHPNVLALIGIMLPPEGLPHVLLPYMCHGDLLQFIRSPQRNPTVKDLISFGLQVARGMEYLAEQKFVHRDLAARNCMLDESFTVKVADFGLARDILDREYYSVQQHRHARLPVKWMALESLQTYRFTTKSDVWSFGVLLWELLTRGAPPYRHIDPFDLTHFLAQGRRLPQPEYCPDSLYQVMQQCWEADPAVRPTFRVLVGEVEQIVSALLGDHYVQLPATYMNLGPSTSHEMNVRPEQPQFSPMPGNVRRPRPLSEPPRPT

With `COc1ccc2c(Oc3ccc(NC(=O)c4c(C)n(CC(C)(C)O)n(-c5ccccc5)c4=O)nc3)ccnc2c1` [AMG-458], the IC50 on c-Met [1] is 4 nM; at RON, 9 nM.
Take `NC(=O)c1ccc(-c2ccc3nnn(Cc4ccc5ncccc5c4)c3n2)cc1F` [Ex 15, 2-Fluoro-4-(3-(quinolin-6-ylmethyl)-3H-[1,2,3]triazolo[4,5-b]pyridin-5-yl)benzamide]: the melting point lay in the range of 198 to 200 °C. This compound also came in with a GI50 with MKN-45 cells [2] of 50 to 150 nM. This compound came in with a half-maximal inhibitory concentration (IC50) with Akt [3] of 100 to 200 nM. In addition, the IC50 in the data set on Akt [4] was ≤ 25 nM. The “Apoptosis in MKN-45 cells (percentage induction)” value with MKN-45 cells [5] is “A (A = >50 to 100%)”. On c-Met [6], this compound displayed an IC50 of 50 to 150 nM. Further, the IC50 on c-Met [7] was 10 to 50 nM. Moreover, the IC50 on Met kinase [8] is ≤ 10 nM. On Met kinase [9], this compound returned an inhibition at 1 µM of 75 to 100% and an IC50 of 50 to 100 nM.
`O=C(Nc1nc[nH]n1)c1ccc(-c2ccc3nnn(Cc4ccc5ncccc5c4)c3n2)cc1F` [Ex 52, 2-Fluoro-4-(3-(quinolin-6-ylmethyl)-3H-[1,2,3]triazolo[4,5-b]pyridin-5-yl)-N-(1H-1,2,4-triazol-3-yl)benzamide] yielded a melting point of 265 to 267 °C. In the data set on MKN-45 cells [2], the GI50 was ≤ 50 nM and the “Inhibition (% Inhibition of MKN-45 proliferation)” value is given as “D (D = <25%)”. In addition, in the data set on Akt [3], the IC50 is 50 to 100 nM. The 50% inhibitory concentration (IC50) in the data set with Akt [4] was ≤ 25 nM. The “Apoptosis in MKN-45 cells (percentage induction)” value in the data set on MKN-45 cells [5] was “A (A = >50 to 100%)”. Further, on c-Met [6], the IC50 was ≤ 50 nM. In addition, the IC50 at c-Met [7] is ≤ 10 nM. Moreover, on Met kinase [9], the inhibition at 1 µM lay within 75 to 100% and the IC50 was ≤ 50 nM.
Compound `NC(=O)c1ccc(-c2ccc3nnn(Cc4ccc5ncccc5c4)c3n2)cc1Cl` [Ex 108, 2-Chloro-4-(3-(quinolin-6-ylmethyl)-3H-[1,2,3]triazolo[4,5-b]pyridin-5-yl)benzamide] registered a melting point of 212 to 215 °C. For the same compound, in the data set on MKN-45 cells [2], the concentration for 50% growth inhibition (GI50) was ≤ 50 nM and the inhibition at 0.1 µM fell in the range of 50 to 75%. In the data set with Akt [3], the IC50 is ≤ 25 nM. Also, the IC50 in the data set with Akt [4] is ≤ 25 nM. Moreover, the “Apoptosis in MKN-45 cells (percentage induction)” value in the data set on MKN-45 cells [5] was “A (A = >50 to 100%)”. The IC50 against c-Met [6] was ≤ 50 nM. The IC50 at c-Met [7] was ≤ 10 nM. Besides, the IC50 at Met kinase [8] was ≤ 10 nM. In addition, on Met kinase [9], the inhibition at 1 µM is 75 to 100% and the IC50 is ≤ 50 nM.
In the case of `CCNC(=O)c1ccc(-c2ccc3nnn(Cc4ccc5ncccc5c4)c3n2)cc1Cl` [Ex 119, 2-Chloro-N-ethyl-4-(3-(quinolin-6-ylmethyl)-3H-[1,2,3]triazolo[4,5-b]pyridin-5-yl)benzamide], the melting point was 187 to 190 °C. For the same compound, in the data set on MKN-45 cells [2], the GI50 is ≤ 50 nM and the “Inhibition (% Inhibition of MKN-45 proliferation)” value is on record as “A (A = ≥75 to 100%)”. Moreover, in the data set on Akt [3], the half-inhibitory concentration (IC50) is ≤ 25 nM. Besides, the IC50 in the data set with Akt [4] is ≤ 25 nM. Also, in the data set on MKN-45 cells [5], the “Apoptosis in MKN-45 cells (percentage induction)” value is “A (A = >50 to 100%)”. At c-Met [6], the IC50 is ≤ 50 nM. In addition, the half-inhibitory concentration (IC50) against c-Met [7] is ≤ 10 nM. The IC50 on Met kinase [8] was ≤ 10 nM. Also, at Met kinase [9], the inhibition at 1 µM was in the range of 75 to 100% and the IC50 was ≤ 50 nM.
`NC(=O)c1c(F)cc(-c2ccc3nnn(Cc4ccc5ncccc5c4)c3n2)cc1F` [Ex 130, 2,6-Difluoro-4-(3-(quinolin-6-ylmethyl)-3H-[1,2,3]triazolo[4,5-b]pyridin-5-yl)benzamide]: the GI50 in the data set on MKN-45 cells [2] was ≤ 50 nM. Also, in the data set with MKN-45 cells [2], the “Inhibition (% Inhibition of MKN-45 proliferation)” value was “A (A = ≥75 to 100%)”. Also, the IC50 is 50 to 100 nM with Akt [3]; 25 to 50 nM in the data set on Akt [4]; ≤ 50 nM against c-Met [6]; ≤ 10 nM at Met kinase [8]; ≤ 50 nM at Met kinase [9]. Further, the “Apoptosis in MKN-45 cells (percentage induction)” value in the data set on MKN-45 cells [5] was “B (B = ≤50)”. Also, at Met kinase [9], the inhibition at 1 µM was 75 to 100%.
Consider `NC(=O)c1ccc(-c2ccc3nnn(Cc4cc5cccnc5cc4F)c3n2)cc1Cl` [Ex 134, 2-Chloro-4-(3-((7-fluoroquinolin-6-yl)methyl)-3H-[1,2,3]triazolo[4,5-b]pyridin-5-yl)benzamide], for which, in the data set on MKN-45 cells [2], the GI50 is ≤ 50 nM. This compound also gave an inhibition at 0.1 µM with MKN-45 cells [2] of 50 to 75%. Further, the IC50 in the data set on Akt [3] was ≤ 25 nM; in the data set on Akt [4], ≤ 25 nM; against c-Met [6], ≤ 50 nM; against c-Met [7] it was ≤ 10 nM; at Met kinase [8], 10 to 50 nM; against Met kinase [9], ≤ 50 nM. Moreover, the “Apoptosis in MKN-45 cells (percentage induction)” value in the data set on MKN-45 cells [5] is on record as “A (A = >50 to 100%)”. In addition, the inhibition at 1 µM against Met kinase [9] fell in the range of 75 to 100%.

As a reminder, the IC50 is the midpoint of a concentration-inhibition curve. For orientation: GI50 means the concentration giving 50% growth inhibition. A lower GI50 goes with more potent growth inhibition. The term melting point denotes the temperature of the solid-liquid transition. As usually defined, the inhibition is how much of the control response was suppressed. Read a low inhibition as a response near the control.
